Reference: ChEMBL document CHEMBL4622839, “Induction of enantio-selective apoptosis in human leukemia HL-60 cells by (S)-erypoegin K, an isoflavone isolated from Erythrina poeppigiana” (Bioorg Med Chem, 2020)
The source made the active and inactive calls. No cut-off for these calls is given here.

Key:
[1] = molecular target: Lactoylglutathione lyase (Homo sapiens, UniProt Q04760); assay: Inhibition of recombinant human Glyoxalase-1 expressed in Escherichia coli BL21 (DE3) assessed as inhibition of S-D-lactoylglutathione formation using MG and reduced glutathione as substrate measured for 2 mins by spectrophotometric method
[2] = tested on: HL-60; assay: Antiproliferative activity against human HL60 cells assessed as inhibition of cell viability incubated for 48 hrs by MTS assay; type: functional, cell-based; settings: for IC50: HL-60, 48 h
[3] = species on record: Homo sapiens; assay: Selectivity index, ratio of IC50 for recombinant human Glyoxalase-1 expressed in Escherichia coli BL21 (DE3) to IC50 for antiproliferative activity against human HL60 cells
[4] = tested on: HL-60; assay: Antiproliferative activity against human HL60 cells assessed as inhibition of cell viability up to 50 uM incubated for 48 hrs by MTS assay; type: functional, cell-based
[5] = tested on: HL-60; assay: Induction of apoptosis in human HL60 cells assessed as caspase 9 activation at 0.1 to 0.5 uM incubated up to 24 hrs by flurometric analysis; type: functional, cell-based
[6] = tested on: HL-60; assay: Induction of apoptosis in human HL60 cells assessed as caspase 3 activation at 0.1 to 0.5 uM incubated up to 24 hrs by flurometric analysis; type: functional, cell-based
[7] = tested on: HL-60; assay: Induction of apoptosis in human HL60 cells assessed as DNA ladder formation at 1 to 3 uM incubated for 5 hrs by agarose gel electrophoresis method; type: functional, cell-based
[8] = tested on: HL-60; assay: Induction of apoptosis in human HL60 cells assessed as nuclear condensation/fragmentation at 5 uM incubated for 6 hrs by Hoechst 33342 staining-based fluorescence microscopic method; type: functional, cell-based
[9] = tested on: HL-60; assay: Induction of apoptosis in human HL60 cells assessed as increase in MG level accumulation at 1 to 3 uM incubated for 8 to 24 hrs by HLPC analysis; type: functional, cell-based

Chain of Lactoylglutathione lyase (Q04760 whole entry): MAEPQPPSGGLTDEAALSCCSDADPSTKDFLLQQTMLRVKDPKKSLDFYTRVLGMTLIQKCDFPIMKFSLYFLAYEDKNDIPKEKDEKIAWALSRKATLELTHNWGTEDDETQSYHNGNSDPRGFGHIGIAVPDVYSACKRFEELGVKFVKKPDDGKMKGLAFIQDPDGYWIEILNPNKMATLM

IC50 [1] [µM]	IC50 [2] [µM]	SMILES	Ratio IC50 [3]	Activity [4]	Activity [5]	Activity [6]	Activity [2]	Activity [7]	Activity [8]	Activity [9]
109	0.175	CC(C)(O)C1Cc2c(cc(O)c3c(=O)c(-c4ccc(O)cc4)coc23)O1 (racemic)	625	–	–	–	–	–	–	–
100	–	CC(C)(O)[C@H]1Cc2c(cc(O)c3c(=O)c(-c4ccc(O)cc4)coc23)O1	–	inactive	inactive	inactive	inactive	inactive	inactive	inactive
100	0.09	CC(C)(O)[C@@H]1Cc2c(cc(O)c3c(=O)c(-c4ccc(O)cc4)coc23)O1	–	–	–	–	–	Active	Active	–
